In US20240132513A1, “BENZAZEPINE DERIVATIVES, COMPOSITIONS, AND METHODS FOR TREATING COGNITIVE IMPAIRMENT” (AGENEBIO, INC., priority 2022, published 2024) one finds Ki data, which are given here for 52 compounds.

Molecules are shown by their SMILES. Read-outs that look alike come from different tables or passages of the source.

The target of this assay is α5β3γ2 GABAA R (Homo sapiens, UniProt P18507+P31644). The assay is described as follows: Binding activity on GABAA R: inhibition of [3H]Ro15-1788 binding, α5 containing receptor. As to the method:
Tissue culture and Membrane Preparation: The binding was performed on Ltk cells stably expressing GABAA R: […], α2β3γ2, α3β3γ2 and α5β3γ2 (provided by Merck Co., NJ, USA). Cells were seeded in 100 mm culture plates in DMEM/F12 medium containing 10% serum and antibiotics in 5% CO2 and allowed to grow for 1-2 days. GABAAR expression was then induced by dexamethasone as follows: 0.5 μM for 1 day for α5 containing and 2 μM for 3 days for α1, α2 and α3 containing GABAARs. After induction, cells were collected by scraping into Dulbecco's Phosphate buffered saline (DPBS, pH 7.4, Invitrogen, Carlsbad, CA, USA) and centrifuged at 150×g for 10 min. The pellet was washed twice by re-suspension and centrifugation. The cell pellets from at least 5 different preps were combined, suspended in the binding assay buffer (50 mM KH2PO4; 1 mM EDTA; 0.2 M KCl, pH 7.4) and membranes prepared by sonication (3-5 times, 30 sec) using Branson Sonifier 150 (G. Heinmann, Germany). Protein content was determined using BCA assay (Bio-Rad Labs, Reinach, Switzerland) with Bovine Serum Albumin (Sigma Aldrich, St. Louis, MO, USA) as the standard. Aliquots were prepared and stored at −20° C. for further use in binding assays.
Ligand Binding: Saturation binding curves were obtained by incubating membranes with increasing concentrations (0.01-8 nM) of [^3H]Rol5-1788 (Flumazepil, 75-85 Ci/mmol, PerkinElmer, MA, USA), with nonspecific binding measured in the presence of 10 μM diazepam.
All binding assays were performed for 1 h at 4° C. in assay buffer. The total assay volume was 0.5 ml containing 0.2 mg/ml protein for α5 and 0.4 mg/ml for α1, α2, and α3 containing GABAAR membranes. Incubations were terminated by filtration through GF/B filters using a 24-Cell Harvestor (Brandel, Gaithersburg, MD, USA) followed by 3 washes with ice-cold assay buffer. Filters were transferred to scintillation vials, 5 ml scintillation liquid added, vortex-mixed and kept in dark. Next day, radioactivity was obtained using a scintillation counter (Beckman Coulter, Brea, CA, USA). All assays were performed in triplicate.
Data Analyses: Saturation and inhibition curves were obtained using GraphPad Prism software (GraphPad Software, Inc., CA, USA).

Where [1] appears, read: ranges of the column heads, [3H]Ro15-1788, Ltk cell membranes.

By Ki is commonly meant a dissociation constant, usually derived from enzyme kinetics or from competition with a known ligand. The low end stands for a stronger hold on the target, the high end for a looser hold on the target.

α5β3γ2 GABAA R, sequence (P31644 32-462): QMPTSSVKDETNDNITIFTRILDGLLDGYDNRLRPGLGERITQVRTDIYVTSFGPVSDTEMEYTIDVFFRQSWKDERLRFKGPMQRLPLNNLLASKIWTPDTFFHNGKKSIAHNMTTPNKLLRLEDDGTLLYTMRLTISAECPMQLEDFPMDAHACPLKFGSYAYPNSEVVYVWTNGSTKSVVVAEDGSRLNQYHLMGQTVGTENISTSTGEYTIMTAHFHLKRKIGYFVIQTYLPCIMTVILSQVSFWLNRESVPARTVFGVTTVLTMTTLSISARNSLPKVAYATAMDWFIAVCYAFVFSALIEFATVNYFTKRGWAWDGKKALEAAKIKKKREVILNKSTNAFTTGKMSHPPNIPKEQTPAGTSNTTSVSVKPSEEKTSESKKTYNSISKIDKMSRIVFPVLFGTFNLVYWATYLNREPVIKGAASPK
α5β3γ2 GABAA R, sequence (P28472 26-473 partner): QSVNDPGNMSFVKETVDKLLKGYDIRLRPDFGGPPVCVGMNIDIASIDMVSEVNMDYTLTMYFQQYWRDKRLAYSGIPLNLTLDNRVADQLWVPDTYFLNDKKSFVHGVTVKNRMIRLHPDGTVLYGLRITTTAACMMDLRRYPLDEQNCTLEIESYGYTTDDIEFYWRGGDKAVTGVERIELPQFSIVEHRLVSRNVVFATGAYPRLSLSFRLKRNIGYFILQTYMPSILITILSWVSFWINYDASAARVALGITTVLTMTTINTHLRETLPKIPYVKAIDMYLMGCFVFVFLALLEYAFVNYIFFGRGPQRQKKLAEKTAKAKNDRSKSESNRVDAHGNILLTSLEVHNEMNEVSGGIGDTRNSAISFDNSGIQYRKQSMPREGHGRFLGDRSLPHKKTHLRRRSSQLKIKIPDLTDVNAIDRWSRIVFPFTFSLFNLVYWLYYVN
α5β3γ2 GABAA R, sequence (P18507 40-475): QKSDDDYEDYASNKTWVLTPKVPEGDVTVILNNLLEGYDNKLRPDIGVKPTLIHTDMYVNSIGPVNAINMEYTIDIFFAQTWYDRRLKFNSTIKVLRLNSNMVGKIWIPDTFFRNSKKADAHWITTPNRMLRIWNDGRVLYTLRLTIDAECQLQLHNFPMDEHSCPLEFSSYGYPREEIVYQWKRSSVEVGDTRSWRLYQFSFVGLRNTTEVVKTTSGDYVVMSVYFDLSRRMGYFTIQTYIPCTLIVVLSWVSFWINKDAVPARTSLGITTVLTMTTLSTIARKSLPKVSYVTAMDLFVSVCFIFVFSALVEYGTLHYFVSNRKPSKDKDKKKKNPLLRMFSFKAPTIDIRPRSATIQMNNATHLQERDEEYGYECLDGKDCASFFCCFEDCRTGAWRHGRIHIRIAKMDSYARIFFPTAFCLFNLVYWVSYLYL

In the case of `COc1ccc2c(c1)-c1nn(C)cc1Cc1c(-c3nc(CN4CCOCC4)no3)ncn1-2` [Compound 328], the Ki was < 100 nM.
Regarding `CC(C)Cc1noc(-c2ncn3c2Cc2cnoc2-c2cc(Cl)ccc2-3)n1` [Compound 66], the Ki under setting [1] is > 1000 nM.
In the case of `COc1ccc2c(c1)-c1oncc1Cc1c(C3=N[C@@H](c4ccccc4)CO3)ncn1-2` [Compound 48], the Ki under setting [1] was > 1000 nM.
For the compound `COc1ccc2c(c1)-c1nn(Cc3ccccc3)cc1Cc1c(-c3nc(C(C)(C)C)no3)ncn1-2` [Compound 17], the inhibitory constant (Ki) is < 100 nM.
Compound `C[C@@H]1COC(c2ncn3c2Cc2cnn(Cc4ccccc4)c2-c2cc(Cl)ccc2-3)=N1` [Compound 12] returned a Ki under setting [1] of 100 to 1000 nM.
As for `COc1ccc2c(c1)-c1nn(C)cc1Cc1c(-c3noc(C4(OC(C)C)CC4)n3)ncn1-2` [Compound 370], the inhibition constant Ki was < 100 nM.
For the compound `Cn1cc2c(n1)-c1cc(Cl)ccc1-n1cnc(-c3nc(CN4CCCC4)co3)c1C2` [Compound 345], the Ki was < 100 nM.
On the same count and under the same terms, next, `COc1ccc2c(c1)-c1nn(C)cc1Cc1c(-c3noc(C4(F)CCOC4)n3)ncn1-2` (stereo not shown) [Compound 356]: < 100 nM; `CCn1cc2c(n1)-c1cc(Cl)ccc1-n1cnc(C3=N[C@@H](C(C)C)CO3)c1C2` [Compound 180]: < 100 nM.
As for `COc1ccc2c(c1)-c1nn(CC3COC3)cc1Cc1c(-c3noc(C4(OC)CC4)n3)ncn1-2` [Compound 331], the Ki is < 100 nM.
With `COc1ccc2c(c1)-c1nn(C)cc1Cc1c(-c3noc(Cn4cccc4)n3)ncn1-2` [Compound 360], the Ki was < 100 nM.
The same measure, in the same setting: next, `COC1(c2nc(-c3ncn4c3Cc3cn(CC5CCCO5)nc3-c3cc(Cl)ccc3-4)no2)CC1` (stereo not shown) [Compound 322]: < 100 nM.
`COc1ccc2c(c1)-c1c(cnn1CC1CCOC1)Cc1c(-c3nc(C(C)C)no3)ncn1-2` (stereo not shown) [Compound 246]: the Ki under setting [1] is < 100 nM.
As to `COCCn1cc2c(n1)-c1cc(OC)ccc1-n1cnc(-c3noc(C(C)(C)OC)n3)c1C2` [Compound 311], the Ki is < 100 nM.
Same read-out and setting: the value for `Clc1ccc2c(c1)-c1nn(C3CCOC3)cc1Cc1c(-c3cnn(CC4CCOCC4)c3)ncn1-2` (stereo not shown) [Compound 321] was < 100 nM; that for `CC(C)OCc1nc(-c2ncn3c2Cc2cn(CC4CCCO4)nc2-c2cc(Cl)ccc2-3)no1` (stereo not shown) [Compound 307] was < 100 nM; that for `Cn1ncc2c1-c1cc(Cl)ccc1-n1cnc(C#CC(C)(C)C)c1C2` [Compound 102] was < 100 nM.
The same measure, in the same setting: next, `CC(=O)N(C)Cc1coc(-c2ncn3c2Cc2cn(C)nc2-c2cc(Cl)ccc2-3)n1` [Compound 358]: < 100 nM.
The same measure, in the same setting: the value for `COc1ccc2c(c1)-c1nn(C)cc1Cc1c(-c3nc(CN(C)C(C)=O)co3)ncn1-2` [Compound 378] was 100 to 1000 nM.
`COc1ccc2c(c1)-c1c(cnn1CC1CCOC1)Cc1c(-c3noc(C(C)(C)OC)n3)ncn1-2` (stereo not shown) [Compound 375]: the Ki was < 100 nM.
Same read-out and setting: the value for `Cn1cc2c(n1)-c1cc(Cl)ccc1-n1cnc(-c3ncco3)c1C2` [Compound 166] was < 100 nM; that for `Clc1ccc2c(c1)-c1nn(CC3CCCO3)cc1Cc1c(-c3cnn(Cc4ccccn4)c3)ncn1-2` (stereo not shown) [Compound 320] was < 100 nM.
The same measure, in the same setting: the value for `COCc1nnc(-c2ncn3c2Cc2cn(C)nc2-c2cc(OC)ccc2-3)o1` [Compound 326] was < 100 nM.
Same read-out and setting: the value for `COc1ccc2c(c1)-c1[nH]ncc1Cc1c(-c3cnn(-c4ccccc4)c3)ncn1-2` [Compound 70] was 100 to 1000 nM; that for `COc1ccc2c(c1)-c1nn(C)cc1Cc1c(-c3noc(CCN4CCCC4=O)n3)ncn1-2` [Compound 369] was < 100 nM.
Consider `CCOC(=O)c1cnc2n1CC(=O)N(Cc1ccc(OC)cc1OC)c1cc(Cl)ccc1-2` [Compound 25], for which, under setting [1], the Ki is > 1000 nM.
Regarding `COc1ccc2c(c1)-c1c(cnn1C)Cc1c(-c3noc(C(C)(C)OC)n3)ncn1-2` [Compound 186], the Ki is 100 to 1000 nM.
Take `Clc1ccc2c(c1)-c1nn(CC3CCOC3)cc1Cc1c(-c3cnn(Cc4ccccc4)c3)ncn1-2` (stereo not shown) [Compound 229]: the Ki under setting [1] is < 100 nM.
On the same count and under the same terms, the value for `COc1ccc2c(c1)-c1nn(C)cc1Cc1c(-c3nc(COC4CCOC4)no3)ncn1-2` (stereo not shown) [Compound 316] was < 100 nM.
Turning to `COc1ccc2c(c1)-c1nn(C)cc1Cc1c(-c3nc(CN4CCCC4=O)co3)ncn1-2` [Compound 379], the Ki was < 100 nM.
`COc1ccc2c(c1)-c1[nH]ncc1Cc1c(-c3noc(C(C)(C)C)n3)ncn1-2` [Compound 89]: under setting [1], the Ki is < 100 nM.
With `COc1ccc(C#Cc2ncn3c2Cc2cn[nH]c2-c2cc(OC)ccc2-3)nc1` [Compound 53], the Ki was < 100 nM.
As for `Cn1cc2c(n1)-c1cc(Cl)ccc1-n1cnc(-c3nc(COC4CCOCC4)co3)c1C2` [Compound 346], the Ki under setting [1] was < 100 nM.
Still for that read-out and setting: the value for `CN1C(=O)Cn2c(C3=N[C@@H](c4ccccc4)CO3)cnc2-c2ccc(Cl)cc21` [Compound 30] was > 1000 nM.
The compound `CC(C)c1noc(-c2ncn3c2Cc2cnn(C)c2-c2cc(Cl)ccc2-3)n1` [Compound 4] displayed an inhibitory constant (Ki) of 100 to 1000 nM.
Same read-out and setting: the value for `Cn1cc2c(n1)-c1cc(Cl)ccc1-n1cnc(-c3cnn(C4CCCO4)c3)c1C2` (stereo not shown) [Compound 221] was 100 to 1000 nM.
Turning to `COc1ccc2c(c1)-c1[nH]ncc1Cc1c(-c3cn(C)nc3C(F)(F)F)ncn1-2` [Compound 81], the Ki under setting [1] is > 1000 nM.
For `Clc1ccc2c(c1)-c1[nH]ncc1Cc1c(-c3cnn(-c4ccccc4)c3)ncn1-2` [Compound 60], the Ki fell in the range of 100 to 1000 nM.
In the case of `COc1ccc2c(c1)-c1nn(C)cc1Cc1c(-c3nnc(COCC(F)(F)F)o3)ncn1-2` [Compound 334], the Ki was < 100 nM.
On to `COc1ccc2c(c1)-c1n[nH]cc1Cc1c(-c3noc(C4(F)CC4)n3)ncn1-2` [Compound 191], for which the Ki was < 100 nM.
On the same count and under the same terms, the value for `COc1ccc2c(c1)-c1nn(CC3CCOC3)cc1Cc1c(-c3noc(C(C)(C)OC)n3)ncn1-2` (stereo not shown) [Compound 374] was < 100 nM; that for `COc1ccc2c(c1)-c1[nH]ncc1Cc1c(-c3ncco3)ncn1-2` [Compound 71] was < 100 nM.
For `COc1ccc2c(c1)-c1nn(C)cc1Cc1c(-c3nc(C4(C)CCOCC4)no3)ncn1-2` [Compound 352], the Ki was < 100 nM.
On the same count and under the same terms, the value for `Cn1cc2c(n1)-c1cc(Cl)ccc1-n1cnc(C3=NC4(COC4)CO3)c1C2` [Compound 182] was < 100 nM; that for `COc1ccc2c(c1)-c1nn(C)cc1Cc1c(-c3noc(CC(C)(C)OC)n3)ncn1-2` [Compound 344] was 100 to 1000 nM.
For `COCc1noc(-c2ncn3c2Cc2cn(CC4COC4)nc2-c2cc(OC)ccc2-3)n1` [Compound 298], the Ki under setting [1] is < 100 nM.
`COc1ccc2c(c1)-c1nn(CC3CCCO3)cc1Cc1c(-c3noc(C4(OC)CC4)n3)ncn1-2` (stereo not shown) [Compound 323]: the Ki was < 100 nM.
On the same count and under the same terms, next, `COc1ccc2c(c1)-c1nn(C)cc1Cc1c(-c3nc(COC4CCOC4)co3)ncn1-2` (stereo not shown) [Compound 273]: < 100 nM.
The same measure, in the same setting: the value for `Clc1ccc2c(c1)-c1nn(CC3CCCO3)cc1Cc1c(-c3noc(C4CCOCC4)n3)ncn1-2` (stereo not shown) [Compound 362] was < 100 nM.
On the same count and under the same terms, the value for `CC(C)c1noc(-c2cnc3n2CC(=O)N(C)c2cc(Cl)ccc2-3)n1` [Compound 31] was > 1000 nM; that for `COc1ccc2c(c1)-c1nn(Cc3ccccc3F)cc1Cc1c(-c3cnn(-c4ccccc4)c3)ncn1-2` [Compound 75] was 100 to 1000 nM.
As to `COc1ccc2c(c1)-c1nn(C)cc1Cc1c(-c3noc(CN4CCOCC4)n3)ncn1-2` [Compound 348], the Ki was < 100 nM.
